ChEMBL document CHEMBL3879914, “Inhibitors of central nervous system vasoactive inhibitory peptide receptor 2” (2014)

Tests used:
[1] = biological target: T1, Vasoactive intestinal polypeptide receptor 2 (Homo sapiens) (UniProt P41587); assay: (§1) Antagonist activity at recombinant human N-terminal signal peptide/FLAG epitope-tagged VIPR2 expressed in HEK293 cells co-expressing CAMYEL assessed as inhibition of VIP-induced cAMP accumulation at 5 uM preincubated for 5 mins with luciferin, coelenterazine H followed by VIP addition measured after 5 mins by BRET assay relative to control; assay type: functional, cell-based
T1 sequence (whole entry): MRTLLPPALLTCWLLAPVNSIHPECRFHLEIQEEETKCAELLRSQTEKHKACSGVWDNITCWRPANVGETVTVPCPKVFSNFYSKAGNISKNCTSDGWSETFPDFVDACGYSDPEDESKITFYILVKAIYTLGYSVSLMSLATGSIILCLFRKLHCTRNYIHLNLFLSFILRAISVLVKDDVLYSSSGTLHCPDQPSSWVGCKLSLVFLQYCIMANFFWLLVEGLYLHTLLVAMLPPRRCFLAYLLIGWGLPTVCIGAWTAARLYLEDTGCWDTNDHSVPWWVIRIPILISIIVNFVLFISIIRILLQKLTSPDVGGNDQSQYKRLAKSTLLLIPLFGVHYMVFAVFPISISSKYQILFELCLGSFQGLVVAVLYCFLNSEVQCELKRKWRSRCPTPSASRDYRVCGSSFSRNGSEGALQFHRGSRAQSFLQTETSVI

[2] = biological target: T1, Vasoactive intestinal polypeptide receptor 2 (Homo sapiens); assay: as §1, with “at 1” for “at 5”; assay type: functional, cell-based
[3] = biological target: T1, Vasoactive intestinal polypeptide receptor 2 (Homo sapiens); assay: (§2) Antagonist activity at recombinant human N-terminal signal peptide/FLAG epitope-tagged Rluc8-fused VIPR2 expressed in HEK293 cells assessed as inhibition of VIP-induced human mVenus-beta-arrestin2 binding at 0.5 uM preincubated for 5 mins with luciferin, coelenterazine H followed by VIP addition measured after 5 mins by BRET assay relative to control; assay type: cell-based
[4] = biological target: T1, Vasoactive intestinal polypeptide receptor 2 (Homo sapiens); assay: as §1, with “at 0.5” for “at 5”; assay type: functional, cell-based
[5] = biological target: T1, Vasoactive intestinal polypeptide receptor 2 (Homo sapiens); assay: as §2, with “5” for “0.5”; assay type: cell-based
[6] = biological target: T1, Vasoactive intestinal polypeptide receptor 2 (Homo sapiens); assay: as §2, with “1” for “0.5”; assay type: cell-based

SMILES: CO[C@@H]1Cc2ccccc2[C@@H]1NC(=O)[C@H](Cc1ccccc1)C[C@H](O)CNS(=O)(=O)c1ccc([N+](=O)[O-])cc1
- inhibition [1]: 5.9%
- inhibition [2]: 5.9%
- inhibition [3]: -7.1 to -2.05%
- inhibition [4]: 15.7%
- inhibition [5]: -10%

SMILES: C[C@H](CC(C)(C)C)NC(=O)[C@H](Cc1ccccc1)C[C@H](O)CNS(=O)(=O)c1ccc([N+](=O)[O-])cc1
- inhibition [6]: 3%
- inhibition [1]: -0.1%
- inhibition [2]: 4.4%
- inhibition [3]: -5.2 to 23.3%
- inhibition [4]: -7.9%

SMILES: O=C(N[C@H]1c2ccccc2C[C@H]1O)[C@H](Cc1ccccc1)C[C@H](O)CNS(=O)(=O)c1ccc(C(=O)N2CCCCC2)cc1
- inhibition [1]: -1.4%
- inhibition [2]: -7.3%
- inhibition [3]: -6.85 to 0%
- inhibition [4]: -5.3%

SMILES: CCN(CC)C(=O)[C@@H](Cc1ccccc1)C[C@H](O)CNS(=O)(=O)c1ccc([N+](=O)[O-])cc1
- inhibition [6]: 1.2%
- inhibition [2]: -8.4%
- inhibition [3]: -6.6 to -3.6%
- inhibition [4]: 0.5%
- inhibition [5]: -2.7%

SMILES: O=C(NC[C@@H](O)C[C@@H](Cc1ccccc1)C(=O)N[C@H]1c2ccccc2C[C@H]1O)c1cccc(CCl)c1
- inhibition [6]: 5.7%
- inhibition [1]: 15.1%
- inhibition [2]: 2.3%
- inhibition [3]: -8.1 to 2.4%
- inhibition [4]: 0.5%

SMILES: O=C(NC1CCCCCC1)[C@H](Cc1ccccc1)C[C@H](O)CNS(=O)(=O)c1ccc([N+](=O)[O-])cc1
- inhibition [6]: -5.4%
- inhibition [1]: 12.9%
- inhibition [2]: 5.6%
- inhibition [4]: 1.7%
- inhibition [5]: -2.4%

SMILES: CCNC(=O)[C@H](Cc1ccccc1)C[C@H](O)CNS(=O)(=O)c1ccc([N+](=O)[O-])cc1
- inhibition [6]: 0.1%
- inhibition [1]: -6.2%
- inhibition [2]: -0.4%
- inhibition [3]: -9.25 to 15.2%
- inhibition [4]: -7.1%

SMILES: O=C([C@@H](Cc1ccccc1)C[C@H](O)CNS(=O)(=O)c1ccc([N+](=O)[O-])cc1)N1CCOCC1
- inhibition [1]: 3%
- inhibition [3]: 1.65 to 7%
- inhibition [4]: -5.8%
- inhibition [5]: 0.3%

SMILES: CC(C)C(=O)NC[C@@H](O)C[C@@H](Cc1ccccc1)C(=O)N[C@H]1c2ccccc2C[C@H]1O
- inhibition [1]: -0.9%
- inhibition [2]: 2.6%
- inhibition [4]: 0.7%

SMILES: O=C(NC[C@@H](O)C[C@@H](Cc1ccccc1)C(=O)N[C@H]1c2ccccc2C[C@H]1O)c1ccncc1
- inhibition [6]: 10.9%
- inhibition [1]: 21%
- inhibition [2]: 19.2%
- inhibition [4]: 14.2%
- inhibition [5]: -8.8%

SMILES: O=C([C@H](Cc1ccccc1)C[C@H](O)CNS(=O)(=O)c1ccc([N+](=O)[O-])cc1)N1CCC(CO)CC1
- inhibition [1]: 6.2%
- inhibition [2]: 4.4%
- inhibition [3]: -8.4 to 0.85%
- inhibition [4]: 2.1%
- inhibition [5]: -4.5%

SMILES: O=C([C@H](Cc1ccccc1)C[C@H](O)CNS(=O)(=O)c1ccc([N+](=O)[O-])cc1)N1CCCCC1
- inhibition [1]: 0.5%
- inhibition [2]: -4.8%
- inhibition [4]: -4.8%
- inhibition [5]: -2.8%

SMILES: O=C(CCCCBr)NC[C@@H](O)C[C@@H](Cc1ccccc1)C(=O)N[C@H]1c2ccccc2C[C@H]1O
- inhibition [1]: 9.4%
- inhibition [2]: 12.9%
- inhibition [3]: -0.6 to 1.7%
- inhibition [4]: 11.7%

SMILES: NC(=O)[C@H](Cc1ccccc1)C[C@H](O)CNS(=O)(=O)c1ccc([N+](=O)[O-])cc1
- inhibition [1]: 2.1%
- inhibition [2]: 3.6%
- inhibition [3]: -6.5 to 10.4%
- inhibition [4]: 6.7%

SMILES: CCNC(=O)[C@@H](Cc1ccccc1)C[C@H](O)CNS(=O)(=O)c1ccc([N+](=O)[O-])cc1
- inhibition [6]: 6%
- inhibition [2]: -0.9%
- inhibition [3]: -10 to 14.9%
- inhibition [5]: -7.6%

SMILES: O=C(NCc1ccc(F)cc1F)[C@H](Cc1ccccc1)C[C@H](O)CNS(=O)(=O)c1ccc([N+](=O)[O-])cc1
- inhibition [1]: 22.1 to 23.6%
- inhibition [2]: 7.2 to 22.1%
- inhibition [4]: 2.4%
- inhibition [5]: 30.8%

SMILES: Cc1ccc([N+](=O)[O-])cc1S(=O)(=O)NC[C@@H](O)C[C@@H](Cc1ccccc1)C(=O)N[C@H]1c2ccccc2C[C@H]1O
- inhibition [6]: -3.8%
- inhibition [1]: 18.3%
- inhibition [2]: 13.6%
- inhibition [4]: 10.9%
- inhibition [5]: -0.6%
